From US11957665B1, “Pharmaceutical composition for preventing or treating alopecia areata acting as a functional antagonist for S1PR1 and S1PR4” (NEXTGEN BIOSCIENCE CO., LTD., priority 2022, dated 2024)

Legend:
[1] = test system: T cells, CD4 T cells, CD8 T cells; assay: Inhibitory effect of NXC736 on rat immune cells (flow cytometry of lymphocytes in peripheral blood and bone marrow); assay type: in vivo, SD rats; details: 10 mg/kg oral once, PB
Description: To evaluate the effect of NXC736 on rat immune cells, NXC736 was administered orally once at 10 mg/kg/day to SD rats (Daehan BioLink (DBL), 3 control groups, and 15 test groups), and then measurements were performed by classifying into T cells, CD4 T cells, and CD8 T cells in peripheral bloodstream (PB) and bone marrow (BM) using the same antibodies as in Experimental Example 1. Specifically, measurements were made using a flow cytometer (FC500, Beckman coulter) at 0, 4, 8, 12, 24, 36, and 48 hours after administration of the test substance, the analysis was performed using FlowJo™ V10 (Flowjo, LLC), and the numbers of T cells, CD4 T cells, and CD8 T cells were expressed as % of control based on time 0.

[2] = test system: beagle dogs; assay: Effect on the cardiovascular system (heart rate, general symptoms) in beagle dogs; assay type: in vivo
Description: NXC736 was orally administered to four unanesthetized and unrestrained male beagle dogs (ORIENTBIO Inc., Republic of Korea) implanted with remote transmitters. Afterwards, the heart rate of four beagle dogs was measured to evaluate the effect of NXC736 on the cardiovascular system, and the occurrence of abnormal symptoms was visually checked.
In this experiment, 4 beagle dogs were administered with 0.5% MC aqueous solution, which is an excipient, as a control substance, and the heart rate was measured, and after 1 week, NXC736 was administered at 12.5 mg/kg and the heart rate was measured, after 1 week, NXC736 was administered at 25 mg/kg and the heart rate was measured, and after 1 week, NXC736 was administered at 50 mg/kg and the heart rate was measured.
The heart rate of beagle dogs was specifically measured at 0 hours before administration of the test substance, and 0.5 hours, 1 hour, 2 hours, 3 hours, 4 hours, 6 hours, 8 hours, 12 hours, and 24 hours after administration of the test substance.

[3] = test system: T cells, CD4 T cells, CD8 T cells; assay: Inhibitory effect of NXC736 on mouse immune cells (flow cytometry of lymphocytes in peripheral blood and bone marrow); assay type: in vivo, C57BL/6 mice; details: 3 mg/kg oral once
Description: To determine whether NXC736, which acts on the S1P receptor, also has an effect on lymphocyte reduction, the effect of NXC736 on immune cells was evaluated. After oral administration of NXC736 once at 3 mg/kg/day to C57BL/6 mice (Daehan BioLink (DBL), 4 mice in the control group and 18 mice in the test group), the change in lymphocytes in peripheral blood (PB), bone marrow (BM) was measured by classifying into T cells (using anti-mouse CD3ε-PE/cyanine7 antibody), CD4 T cells (using anti-mouse CD4-FITC antibody), and CD8 T cells (using anti-mouse CD8a-PerCP antibody). Specifically, measurements were made using a flow cytometer (FC500, Beckman coulter) at 0, 4, 8, 12, 24, and 36 hours after administration of the test substance, the analysis was performed using FlowJo™ V10 (Flowjo, LLC), and the numbers of T cells, CD4 T cells, and CD8 T cells were expressed as % of control based on time 0.

[4] = test system: alopecia areata mouse model C3H/HeJ; assay: Efficacy in suppressing alopecia areata in C3H/HeJ alopecia areata mouse model; assay type: in vivo, C3H/HeJ mice
Description: The effectiveness of NXC736 for alopecia areata was evaluated using the alopecia areata mouse model C3H/HeJ (Jackson Lab, Saeron Bio). […] Conditions for the animal breeding room include a temperature of 23±3° C., relative humidity of 50±10%, and day and night maintained at 12-hour intervals, and experimental animals were raised in isolation breeding boxes (ThreeShine), and fed with food and drinking water for experimental animals ad libitum.
Mice were divided into two groups: the control group (sterilized distilled water administration group) and the NXC736 administration experimental group, five C3H/HeJ mice were randomly assigned per group, and from the time point lymph node cells were proliferated and injected into C3H/HeJ mice aged 10 to 16 weeks where no alopecia was induced, NXC736 was orally administered at 30 mg/kg for the NXC736 administration group and the same volume of sterilized distilled water was orally administered for the control group for 12 weeks once a day at the same time, respectively, and then the area of alopecia areata (AA) lesion area and disease free ratio were measured at intervals of 2 weeks.
The alopecia areata lesion area was measured using the Image J program (Version 1.44p) after taking a photograph.
The disease free ratio was defined as the proportion of mice administered the drug and not showing alopecia symptoms at a specified time point.

[5] = biological target: T1, hERG potassium ion channel (Homo sapiens, UniProt Q12809); assay: Effect on hERG channel currents in HEK-293 cells overexpressing the hERG gene
[6] = biological target: T1, hERG potassium ion channel; assay: cell-based

T1 sequence (Q12809 whole entry): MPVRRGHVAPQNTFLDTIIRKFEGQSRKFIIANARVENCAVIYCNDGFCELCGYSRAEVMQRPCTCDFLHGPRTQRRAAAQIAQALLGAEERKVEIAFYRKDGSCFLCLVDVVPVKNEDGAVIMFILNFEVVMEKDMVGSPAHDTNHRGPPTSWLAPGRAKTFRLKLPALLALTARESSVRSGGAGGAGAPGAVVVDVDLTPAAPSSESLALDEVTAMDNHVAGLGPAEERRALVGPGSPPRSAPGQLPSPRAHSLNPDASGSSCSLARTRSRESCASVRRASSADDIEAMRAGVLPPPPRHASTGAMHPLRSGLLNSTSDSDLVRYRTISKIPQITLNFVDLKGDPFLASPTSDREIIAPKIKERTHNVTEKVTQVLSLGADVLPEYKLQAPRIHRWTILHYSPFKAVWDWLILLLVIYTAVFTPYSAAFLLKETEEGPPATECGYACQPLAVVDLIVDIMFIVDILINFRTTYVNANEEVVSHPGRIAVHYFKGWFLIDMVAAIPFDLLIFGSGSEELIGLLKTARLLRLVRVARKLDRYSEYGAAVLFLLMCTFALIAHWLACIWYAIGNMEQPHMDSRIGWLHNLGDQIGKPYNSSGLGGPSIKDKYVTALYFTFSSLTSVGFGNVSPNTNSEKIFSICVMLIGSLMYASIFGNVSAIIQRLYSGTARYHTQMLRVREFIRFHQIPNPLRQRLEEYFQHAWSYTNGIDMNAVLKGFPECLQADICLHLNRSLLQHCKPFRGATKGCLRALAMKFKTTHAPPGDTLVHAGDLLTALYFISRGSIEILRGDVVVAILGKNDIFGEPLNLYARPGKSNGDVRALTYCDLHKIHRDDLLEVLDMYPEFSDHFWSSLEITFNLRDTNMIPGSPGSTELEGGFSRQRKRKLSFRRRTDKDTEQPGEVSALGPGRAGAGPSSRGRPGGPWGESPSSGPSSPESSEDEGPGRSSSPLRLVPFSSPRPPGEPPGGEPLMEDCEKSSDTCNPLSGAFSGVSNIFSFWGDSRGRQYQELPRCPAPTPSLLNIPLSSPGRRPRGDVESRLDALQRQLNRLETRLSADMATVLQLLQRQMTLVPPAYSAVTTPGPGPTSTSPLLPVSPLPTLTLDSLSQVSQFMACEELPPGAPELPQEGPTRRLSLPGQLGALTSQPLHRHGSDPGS

CCCCCCCCCCn1cc(CCC(N)(CO)CO)nn1 [NXC736, 2-amino-2-(2-(1-decyl-1H-1,2,3-triazol-4-yl)ethyl)propane-1,3-diol]
time for which the immunosuppressive effect was maintained [1]: up to 24 hours | heart rate ([2]; oral doses of 12.5, 25 and 50 mg/kg, 0-24 hours): no change in heart rate | general symptoms, naked eye ([2]; oral doses of 12.5, 25 or 50 mg/kg): no abnormal symptoms were observed | time until which the decrease of T cells in PB was maintained [3]: ≤ 12 h | T cells in PB after recovery (% of control) ([3]; at 36 hours): 88.9% | time to observe 100% alopecia areata (disease free ratio) ([4]; 30 mg/kg oral once a day): up to 84 days | alopecia areata (AA) lesion area ([4]; 30 mg/kg oral once a day for 12 weeks): approximately 10% | hERG potassium channel activity, conclusion [5]: does not inhibit hERG potassium channel activity | IC50 [6]: 12.9 µM
